Measured values: patent US6436963B1 (priority 1998, dated 2002)

Legend:
Assay type in all cases: in vivo
Erysiphe graminis = experiment: Powdery Mildew of Wheat (ERYSGT), protectant spray test on wheat seedlings; conditions: wheat (cultivar Monon), sprayed to run off at 100 ppm, inoculated after 24 hours
Puccinia recondita = experiment: Brown Rust (PUCCRT), protectant spray test on wheat seedlings; conditions: wheat (cultivar Monon), sprayed to run off at 100 ppm, inoculated after 24 hours
Leptosphaeria nodorum = experiment: Glume Blotch of Wheat (LEPTNO), protectant spray test on wheat seedlings; conditions: wheat (cultivar Monon), sprayed to run off at 100 ppm, inoculated after 24 hours
Phytophthora infestans = conditions: tomatoes (cultivar Rutgers), sprayed to run off at 100 ppm, inoculated after 24 hours

## CNC(=O)C(=NOC)c1ccccc1COc1ncc(C(C)OCc2ccc(Cl)cc2)cc1Cl (racemic) [Example 27]
Erysiphe graminis
  ERYSGT control of plant disease: ++ (++ = 75-100% control of plant disease)
Puccinia recondita
  PUCCRT control of plant disease: ++ (++ = 75-100% control of plant disease)
Leptosphaeria nodorum
  LEPTNO control of plant disease: ++ (++ = 75-100% control of plant disease)
Phytophthora infestans
  PHYTIN control of plant disease: − (− = 0-24% control of plant disease)

## CNC(=O)C(=NOC)c1ccccc1COc1ncc(C(O)(COS(=O)(=O)c2ccc(C)cc2)c2ccccc2)cc1Cl (stereo not shown) [Example 94]
Erysiphe graminis
  ERYSGT control of plant disease: ++ (++ = 75-100% control of plant disease)
Puccinia recondita
  PUCCRT control of plant disease: ++ (++ = 75-100% control of plant disease)
Leptosphaeria nodorum
  LEPTNO control of plant disease: ++ (++ = 75-100% control of plant disease)
Phytophthora infestans
  PHYTIN control of plant disease: ++ (++ = 75-100% control of plant disease)

## CNC(=O)C(=NOC)c1ccccc1COc1ncc(C(O)c2cccc(C)c2)cc1Cl (stereo not shown) [Example 84]
Erysiphe graminis
  ERYSGT control of plant disease: ++ (++ = 75-100% control of plant disease)
Puccinia recondita
  PUCCRT control of plant disease: ++ (++ = 75-100% control of plant disease)
Leptosphaeria nodorum
  LEPTNO control of plant disease: − (− = 0-24% control of plant disease)
Phytophthora infestans
  PHYTIN control of plant disease: ++ (++ = 75-100% control of plant disease)

## CCOCCOC(c1ccccc1)c1cnc(OCc2ccccc2C(=NOC)C(=O)NC)c(Cl)c1 (stereo not shown) [Example 118]
Erysiphe graminis
  ERYSGT control of plant disease: ++ (++ = 75-100% control of plant disease)
Puccinia recondita
  PUCCRT control of plant disease: ++ (++ = 75-100% control of plant disease)
Leptosphaeria nodorum
  LEPTNO control of plant disease: ++ (++ = 75-100% control of plant disease)
Phytophthora infestans
  PHYTIN control of plant disease: − (− = 0-24% control of plant disease)

## CNC(=O)C(=NOC)c1ccccc1COc1ncc(C(O)c2ccccn2)cc1Cl (stereo not shown) [Example 105]
Erysiphe graminis
  ERYSGT control of plant disease: ++ (++ = 75-100% control of plant disease)
Puccinia recondita
  PUCCRT control of plant disease: ++ (++ = 75-100% control of plant disease)
Leptosphaeria nodorum
  LEPTNO control of plant disease: ++ (++ = 75-100% control of plant disease)
Phytophthora infestans
  PHYTIN control of plant disease: ++ (++ = 75-100% control of plant disease)

## CNC(=O)C(=NOC)c1ccccc1COc1ncc(C(O)C2CCCCC2)cc1Cl (stereo not shown) [Example 87]
Erysiphe graminis
  ERYSGT control of plant disease: ++ (++ = 75-100% control of plant disease)
Puccinia recondita
  PUCCRT control of plant disease: ++ (++ = 75-100% control of plant disease)
Leptosphaeria nodorum
  LEPTNO control of plant disease: ++ (++ = 75-100% control of plant disease)
Phytophthora infestans
  PHYTIN control of plant disease: ++ (++ = 75-100% control of plant disease)

## CNC(=O)C(=NOC)c1ccccc1COc1ncc(C(OC(C)=O)c2cccc(C)c2)cc1Cl (stereo not shown) [Example 106]
Erysiphe graminis
  ERYSGT control of plant disease: ++ (++ = 75-100% control of plant disease)
Puccinia recondita
  PUCCRT control of plant disease: ++ (++ = 75-100% control of plant disease)
Leptosphaeria nodorum
  LEPTNO control of plant disease: ++ (++ = 75-100% control of plant disease)
Phytophthora infestans
  PHYTIN control of plant disease: ++ (++ = 75-100% control of plant disease)

## CNC(=O)C(=NOC)c1ccccc1COc1ncc(C(O)c2ccccc2C)cc1Cl (racemic) [Example 59]
Erysiphe graminis
  ERYSGT control of plant disease: ++ (++ = 75-100% control of plant disease)
Puccinia recondita
  PUCCRT control of plant disease: ++ (++ = 75-100% control of plant disease)
Leptosphaeria nodorum
  LEPTNO control of plant disease: ++ (++ = 75-100% control of plant disease)
Phytophthora infestans
  PHYTIN control of plant disease: ++ (++ = 75-100% control of plant disease)

## CNC(=O)C(=NOC)c1ccccc1COc1ncc(C(OC(=O)N(C)C)c2ccccc2)cc1Cl (racemic) [Example 45]
Erysiphe graminis
  ERYSGT control of plant disease: ++ (++ = 75-100% control of plant disease)
Puccinia recondita
  PUCCRT control of plant disease: ++ (++ = 75-100% control of plant disease)
Leptosphaeria nodorum
  LEPTNO control of plant disease: ++ (++ = 75-100% control of plant disease)
Phytophthora infestans
  PHYTIN control of plant disease: ++ (++ = 75-100% control of plant disease)

## CNC(=O)C(=NOC)c1ccccc1COc1ncc(C(OC(C)=O)c2ccccc2Cl)cc1Cl (stereo not shown) [Example 74]
Erysiphe graminis
  ERYSGT control of plant disease: ++ (++ = 75-100% control of plant disease)
Puccinia recondita
  PUCCRT control of plant disease: ++ (++ = 75-100% control of plant disease)
Leptosphaeria nodorum
  LEPTNO control of plant disease: ++ (++ = 75-100% control of plant disease)
Phytophthora infestans
  PHYTIN control of plant disease: ++ (++ = 75-100% control of plant disease)
